According to patent US20060234944A1, “Beta-secretase inhibitors and methods of use” (Oklahoma Medical Reseach Foundation, priority 2001, published 2006):
pKi: −log10 of the molar value. Blank lines part the entries; values can stand above or below the compound they belong to. *1 amine or outer side, *2 acyl side, *3 side chain or, on linkers, in order; H or OH if unused. Where a SMILES comes first, the peptide text is derived from it. [ ]: non-standard residue; d: D form. The star is where a group is joined. LeuΨ(S-CHOHCH2)Ala = CC(C)C[C@H](N[*:1])[C@@H](O)C[C@@H](C)C(=O)[*:2]; 5FAM = O=C1OC2(c3ccc(O)cc3Oc3cc(O)ccc32)c2ccc(C(=O)*)cc21; Ahx = NCCCCCC(=O)O

Columns and labels:
[1] = test system: HEK293 cells; experiment: Entry of fluorescently labelled inhibitors into cultured cells (flow cytometry); assay type: cell-based, human; details: 10 to 30 minutes incubation
Method: Fluorescently labelled inhibitors or fluorescein (Fs) as a control were incubated with suspended cells for time intervals ranging from 10 to 30 minutes. Cells were fixed with paraformaldehyde and permeabilized in 0.2% Tween-20 in PBS for 6 minutes and incubated with anti-fluorescein-Alexa™ 488 antibody (Molecular Probes, Eugene, Oreg.) in order to enhance detection of intracellular inhibitor present from penetration. Flow cytometry (FACSCalibur™) and confocal fluorescent microscopy (Leica TCS NT™) were performed at the Flow and Image Cytometry Lab, OUHSC.

[2] = molecular target: T1, memapsin 2 (Homo sapiens, UniProt P56817); experiment: Inhibition of memapsin 2 cleavage of fluorogenic substrate FS-2 (Ki, Ki apparent, Vi/Vo, % inhibition); assay type: biochemical; details: read-out: Ki for memapsin 2
T1 construct: made in house; host or cells: E. coli
T1 sequence (P56817 41-454): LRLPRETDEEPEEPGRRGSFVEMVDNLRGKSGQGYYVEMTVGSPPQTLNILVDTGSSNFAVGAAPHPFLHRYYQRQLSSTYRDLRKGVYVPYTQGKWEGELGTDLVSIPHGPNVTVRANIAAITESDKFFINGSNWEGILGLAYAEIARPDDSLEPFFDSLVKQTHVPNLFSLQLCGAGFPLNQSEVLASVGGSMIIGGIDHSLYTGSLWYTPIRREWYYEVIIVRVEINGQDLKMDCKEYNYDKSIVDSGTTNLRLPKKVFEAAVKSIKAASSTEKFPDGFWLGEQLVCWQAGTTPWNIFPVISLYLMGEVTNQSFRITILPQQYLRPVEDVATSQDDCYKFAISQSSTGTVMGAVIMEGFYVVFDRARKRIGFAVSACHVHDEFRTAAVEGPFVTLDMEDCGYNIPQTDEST
Method: Ki is the inhibition equilibrium constant which indicates the ability of compounds to inhibit the β-secretase activity of memapsin 2 and memapsin 1. […] The K1 value is independent of the substrate, and converted from Ki apparent.
The Vi/Vo values depicted in Table 1 were determined at conditions under which the enzyme and inhibitor concentrations were equal (e.g., about 80 nM, 100 nM).
(§1) The relationship of Ki (independent of substrate concentration) to Kiapp is a function of substrate concentration in the assay and the Km for cleavage of the substrate by either memapsin 1 or memapsin 2 by the relationship: Kiapp=Ki(1+[S]/Km).
Ki is the inhibition equilibrium constant which indicates the ability of compounds to inhibit the β-secretase activity of memapsin 2 and memapsin 1. […] The Ki value is independent of the substrate, and converted from Ki apparent.
(§2) An aliquot of the inhibitor of known concentration in DMSO was diluted into 1.8 ml 0.1 M NaOAc, pH 4.0. DMSO and added to a final concentration of 10% (v/v), and memapsin 2 (final concentration of 80 nM), followed by a 20 minute equilibration at 37° C. Compounds were evaluated for the ability to inhibit memapsin 1 and memapsin 2 at concentrations between about 10 nM and about 10 μm of inhibitor.
(§3) The relationship of Ki (independent of substrate concentration) to Kiapp is a function of substrate concentration in the assay and the Km for cleavage of the substrate by either memapsin 1 or memapsin 2 by the relationship: Kiapp=Ki (1+[S]/Km).

[3] = test system: plasma Aβ40; experiment: Inhibition of Aβ production in tg2576 transgenic mice (plasma Aβ40 ELISA); assay type: in vivo
Method: Six-month-old tg2576 mice (n=21) were injected intraperitoneally (i.p.) 200 μg of conjugate CPI-3 or with control DMSO, in 200 μl of PBS. Plasma were collected from anesthetized animals by orbital bleed or sephaneous vein into heparinized capillary tubes and clarified by centrifugation. Plasma A≢ 1-40 levels were determined by capture ELISA (BioSource International, Camarillo, Calif.). The peptide analogue of CPI-3, with an amide group instead of the hydroxyethylene isostere was synthesized by SynPep (Camarillo, Calif.).
Since the conjugate inhibitors can cross the blood brain barrier in vivo, enter cells both in vitro and in vivo, and inhibit Aβ production in vitro, inhibition of Aβ production in vivo was determined. Tg2576 mice, expressing the Swedish mutation of the human amyloid precursor protein (including SEQ ID NO: 11) (Hsiao, K., et al., Science 274:99-102 (1996), the teachings of which are incorporated hereby in their entirety) were injected with CPI-3, which is identical in amino acid sequence to CPI-2 and lacks the amino-terminal fluorescein (FAM) derivative. Blood was collected from tg2576 animals at time intervals following injection of 400 μg of CPI-3.

[4] = Transport of conjugated inhibitors into mouse blood cells, splenocytes and brain after i.p. injection
Method: Whole blood cells (with EDTA as anti-coagulant in the syringe or in the capillary tube) were isolated from anesthetized animals from the orbital artery or by heart puncture and diluted 1:10 in PBS. Prior to the harvest of other tissue samples, animals were anesthetized and perfused with 150 ml of neutral-buffered 10% formalin. Spleens were harvested intact. Brains were harvested and cerebral hemispheres separated, one for sectioning by cryostat, the other for single cell isolation for flow cytometry.
Sections of the brain hemispheres were obtained by soaking in OCT/PBS at 4° C. for overnight, recovered and frozen in Histo Prep Media.
To collect single cell suspensions, spleens and brain hemispheres were homogenized through a 30 μm screen and directly analyzed by flow cytometric analysis.

[5] = molecular target: T2, memapsin 1 (Homo sapiens, UniProt Q9Y5Z0); experiment: Inhibition of memapsin 1 cleavage of fluorogenic substrate FS-2 (Ki apparent, % inhibition); assay type: biochemical; details: Table 9; read-out: Ki apparent (nM) Mep1
T2 construct: made in house; host or cells: E. coli
T2 sequence (Q9Y5Z0 63-466): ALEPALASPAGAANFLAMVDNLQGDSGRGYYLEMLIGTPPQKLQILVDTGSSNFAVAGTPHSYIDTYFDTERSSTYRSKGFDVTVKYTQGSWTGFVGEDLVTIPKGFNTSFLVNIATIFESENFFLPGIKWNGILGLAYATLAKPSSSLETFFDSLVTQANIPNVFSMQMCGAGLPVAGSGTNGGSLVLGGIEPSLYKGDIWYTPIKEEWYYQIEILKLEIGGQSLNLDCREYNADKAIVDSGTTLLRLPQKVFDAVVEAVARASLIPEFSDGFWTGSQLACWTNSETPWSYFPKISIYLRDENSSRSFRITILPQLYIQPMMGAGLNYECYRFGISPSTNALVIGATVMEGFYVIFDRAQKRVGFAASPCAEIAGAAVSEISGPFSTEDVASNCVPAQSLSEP
Method: Vi/Vo depicts the ratio of initial cleavage velocities of the substrate FS-2 (Ermolieff, et al., Biochemistry […]:12450-12456 (2000)) by memapsin 1 or memapsin 2 in the absence (Vo) or presence (Vi) of a compound of the invention. […] The Vi/Vo values depicted in Table 1 were determined at conditions under which the enzyme and inhibitor concentrations were equal (e.g., about 80 nM, 100 nM).
as §1, §2, §3

[6] = test system: plasma Aβ40; experiment: Inhibition of Aβ production in APP/F transgenic mouse model of Alzheimer's disease (plasma Aβ40 sandwich ELISA); assay type: in vivo, mice; details: control inhibitor, 163 nmoles i.p., 2 hours following injection
Method: Compounds MMI-138, MMI-165, and MMI-185 were synthesized as described above. Compounds were dissolved in 1 ml of dimethyl sulfoxide (DMSO) to a final concentration of about 1 mg/ml for MMI-165 and MMI-185, and about 10 mg/ml for MMI-138. […] Inhibitors were diluted into PBS or H2O immediately prior to injection, as described below. Inhibition constants were determined by methods described by Ermolieff, et al (Biochem. 39:12450-12456 (2000), the teachings of which are incorporated hereby in their entirety).
The tg2576 strain of mice was obtained from Taconic (Germantown, N.Y.). The APP/F strain of mice were obtained by mating the tg2576 mice with the FVB/N strain. To determine presence of the Swedish APP gene in APP/F mice, the DNA from mice was isolated according to the Qiagen Dneasy™ Tissue Kit. PCR (Qiagen kit and protocol) was used to amplify the fragment of DNA corresponding to the human Swedish APP gene. The following primers were used: […]
At the age of three months, animals of the Alzheimer's disease mouse model APP/F were injected intraperitoneally (i.p.) with about 163 nanomoles of either compounds MMI-138 (molecular weight 674 g/mole; 110 μg per animal, n=2), MMI-165 (molecular weight 626 g/mole; 102 μg per animal, n—2), or MMI-185 (molecular weight 686; 112 μg per animal, n—2).
Heparinized capillary tubes collected blood samples from anesthetized animals from either the retro-orbital sinus or from the saphenous vein at specified intervals following injection. The blood samples were transferred to sterile 1.5 mL microcentrifuge tubes, centrifuged at 5,100 RPM for 10 minutes to recover the plasma (supernatant), and stored at −70° C. until analysis for the Aβ40 by Enzyme Linked-Immuno-Sorbent Assay (ELISA).
A sandwich ELISA (BioSource International, Camarillo, Calif.) was used to determine the levels of Aβ40 in plasma samples. The ELISA utilizes a primary antibody specific for human Aβ for the immobilization of the amino-terminus and a detection antibody specific for the carboxy-terminal amino acids of Aβ40. A conjugated secondary antibody was used to detect the ternary complex, using a stabilized chromogen substrate, quantifiable following addition of 1 M HCl, with the optical densities measured at 450 nm. The procedures were followed according to the BioSource protocol. Optical densities were converted to pg/ml quantities of Aβ40 using a linear regression of the optical densities of standards obtained from the commercial kit, to their known concentrations.

[7] = test system: plasma Aβ40; experiment: as above; assay type: in vivo, mice; details: unconjugated inhibitor, MW 935 g/mole
[8] = Martin et al., Aids 13:1227-32 (1999); cited from earlier work
[9] = four injections at 2 hour intervals

Compound: CC(C)C[C@H](NC(=O)[C@H](CCC(=O)O)NC(=O)CCCCCNC(=O)c1ccc2c(c1)C(=O)OC21c2ccc(O)cc2Oc2cc(O)ccc21)C(=O)N[C@@H](CC(=O)O)C(=O)N[C@@H](CC(C)C)[C@@H](O)C[C@@H](C)C(=O)N[C@H](C(=O)N[C@@H](CCC(=O)O)C(=O)N[C@@H](Cc1ccccc1)C(=O)NCC(=O)NCC(=O)N[C@H](CCCNC(=N)N)C(=O)N[C@H](CCCNC(=N)N)C(=O)N[C@H](CCCNC(=N)N)C(=O)N[C@H](CCCNC(=N)N)C(=O)N[C@H](CCCNC(=N)N)C(=O)N[C@H](CCCNC(=N)N)C(=O)N[C@H](CCCNC(=N)N)C(=O)N[C@H](CCCNC(=N)N)C(=O)N[C@H](CCCNC(=N)N)C(=O)O)C(C)C [CPI-2] ({5FAM-Ahx}-ELD[LeuΨ(S-CHOHCH2)Ala]VEFGG[dR][dR][dR][dR][dR][dR][dR][dR][dR]-OH)
- Penetration of cultured cells (intracellular fluorescence) [1]: readily penetrated cultured cells within minutes

- pKi [2]: 7.46
Compound: CC(C)C[C@H](NC(=O)[C@@H](N)CCC(=O)O)C(=O)N[C@@H](CC(=O)O)C(=O)N[C@@H](CC(C)C)[C@@H](O)C[C@@H](C)C(=O)N[C@H](C(=O)N[C@@H](CCC(=O)O)C(=O)N[C@@H](Cc1ccccc1)C(=O)NCC(=O)NCC(=O)N[C@H](CCCNC(=N)N)C(=O)N[C@H](CCCNC(=N)N)C(=O)N[C@H](CCCNC(=N)N)C(=O)N[C@H](CCCNC(=N)N)C(=O)N[C@H](CCCNC(=N)N)C(=O)N[C@H](CCCNC(=N)N)C(=O)N[C@H](CCCNC(=N)N)C(=O)N[C@H](CCCNC(=N)N)C(=O)N[C@H](CCCNC(=N)N)C(=O)O)C(C)C [CPI-3] (H-ELD[LeuΨ(S-CHOHCH2)Ala]VEFGG[dR][dR][dR][dR][dR][dR][dR][dR][dR]-OH; N-terminus and C-terminus assumed)
- Plasma Aβ40 level relative to initial value ([3]; 2 hours following i.p. injection): about one third
- Aβ level, average low as % of the average initial value [3, 9]: 29%
- Inhibition of plasma Aβ [3, 9]: about 80%
- Plasma Aβ40 relative to PBS control two hours following injection ([3]; i.p., various doses): significant dose-dependent reduction
- Time of return of plasma Aβ40 to the initial value ([3]; single i.p. injection): ≤ 8 h

Compound: CC(C)C[C@H](NC(=O)[C@H](CC(N)=O)NC(=O)[C@@H](NC(=O)[C@H](CCC(=O)O)NC(=O)CCCCCNC(=O)c1ccc2c(c1)C(=O)OC21c2ccc(O)cc2Oc2cc(O)ccc21)C(C)C)[C@@H](O)C[C@@H](C)C(=O)N[C@@H](C)C(=O)N[C@@H](CCC(=O)O)C(=O)N[C@@H](Cc1ccccc1)C(=O)NCC(=O)N[C@@H](Cc1ccc(O)cc1)C(=O)NCC(=O)N[C@@H](CCCNC(=N)N)C(=O)N[C@@H](CCCCN)C(=O)N[C@@H](CCCCN)C(=O)N[C@@H](CCCNC(=N)N)C(=O)N[C@@H](CCCNC(=N)N)C(=O)N[C@@H](CCC(N)=O)C(=O)N[C@@H](CCCNC(=N)N)C(=O)N[C@@H](CCCNC(=N)N)C(=O)N[C@@H](CCCNC(=N)N)C(=O)O [CPI-1] ({5FAM-Ahx}-EVN[LeuΨ(S-CHOHCH2)Ala]AEFGYGRKKRRQRRR-OH)
- Penetration of cultured cells (intracellular fluorescence) [1]: readily penetrated cultured cells within minutes
- Uptake into brain (fluorescence) ([4]; 8 hours after i.p. injection, flow cytometry or confocal microscopy of brain sections): penetration of the fluorescent conjugate into all brain cells
- Blood cells with strong fluorescence signal ([4]; whole blood 20 minutes after i.p. injection of 0.3 nmol): approximately 100%

Compound: CC(C)C[C@H](NC(=O)[C@@H](N)CCC(=O)O)C(=O)N[C@@H](CC(=O)O)C(=O)N[C@@H](CC(C)C)[C@@H](O)C[C@@H](C)C(=O)N[C@H](C(=O)N[C@@H](CCC(=O)O)C(=O)N[C@@H](Cc1ccccc1)C(=O)O)C(C)C [OM00-3, ELDL*AVEF] (H-ELD[LeuΨ(S-CHOHCH2)Ala]VEF-OH; N-terminus assumed)
- Ki [5]: 0.18 nM
- Effect on plasma Aβ40 levels ([3]; i.p. injection (FIG. 21C)): did not reduce plasma Aβ40 levels
- Decrease of plasma Aβ40 [6]: 16%
- Inhibition of Aβ40 production in vivo [7]: failed to inhibit Aβ40 production

Compound: CC(C)(C)NC(=O)[C@@H]1CN(Cc2cccnc2)CCN1C[C@@H](O)C[C@@H](Cc1ccccc1)C(=O)N[C@H]1c2ccccc2C[C@H]1O [indinavir]
- Crossing of the blood-brain barrier [8]: can cross the blood-brain barrier
